# Laboratory results: article PMC11002876, “KcsA-Kv1.x chimeras with complete ligand-binding sites provide improved predictivity for screening selective Kv1.x blockers” (The Journal of Biological Chemistry, 2024)
# Where no end group is shown, it is not given here.
# What was measured:
# [1] = system: human Kv1.3 channel (hKv1.3); assay type: cell-based; conditions: TEA+ 10 mM, positive control; human lymphocytes
# Protocol: (§1) Human Kv1.3 currents were recorded from activated peripheral blood mononuclear cells (see below) 3 to 4 days after activation. Heparinized human peripheral venous blood was obtained from healthy volunteers. Mononuclear cells were separated through Histopaque-1077 density gradient centrifugation. Collected cells were washed twice with Ca^2+- and Mg^2+-free Hanks’ solution containing 25 mM Hepes buffer, pH 7.4. Cells were cultured for 3 to 4 days in 24-well culture plates in a 5% CO2 incubator at 37 °C, in RPMI 1640 medium supplemented with 10% fetal calf serum (Sigma-Aldrich), 100 μg/ml penicillin, 100 μg/ml streptomycin, and 2 mM L-glutamine (density, 0.5 × 10^6 cells per ml). Phytohemagglutinin A (Sigma-Aldrich) was added to the medium at 10 μg/ml to amplify the Kv1.3 expression. Cells were washed gently twice with 2 ml of ECS for the patch-clamp experiments.
# (§2) Conventional whole-cell patch-clamp electrophysiology was used to record ionic currents. Micropipettes were pulled from GC150F-7.5 borosilicate capillaries (Harvard Apparatus) with tip diameters between 0.5 and 1 μm resulting in a tip resistance of 2 to 8 MΩ in the extracellular (bath) solution. All measurements were carried out by using Axopatch 200B amplifier connected to a personal computer using Axon Digidata 1550A data acquisition hardware and Pclamp10.7 software (https://support.moleculardevices.com/s/article/Axon-pCLAMP-10-Electrophysiology-Data-Acquisition-Analysis-Software-Download-Page). The holding potential was −120 mV. Records were discarded when leak at the holding potential was >10% of peak current at the test potential. Experiments were performed at room temperature (20–24 °C). Before analysis, whole-cell current traces were corrected for ohmic leakage and digitally filtered with a three-point boxcar smoothing filter.
# Solutions: all salts and components of the solutions were purchased from Sigma Aldrich. […]
# Native peptides, phage-expressed peptides, and positive controls used for them were dissolved in ECS supplemented with 0.1 mg/ml bovine serum albumin (BSA; Sigma-Aldrich Hungary). Bath perfusion around the measured cell with different extracellular solutions was achieved using a gravity flow micro perfusion system using a rate of 0.5 ml/min. […]
# (§3) Voltage protocols: For measurement of Kv1.1 to 1.3 currents, voltage steps to +50 mV were applied from a holding potential of −120 mV and the peak current was measured every 15 s. […] The remaining current fraction at a given molar concentration was calculated as I/I0, where I0 is the peak current in the absence and I is the peak current at equilibrium block or […] after ∼2 min perfusion by the investigated peptide/phage.
# [2] = system: human Kv1.1 channel (hKv1.1); conditions: read-out: IC50 on Kv1.1; positive control applied at a concentration equivalent to its IC50; no reference given; cited from earlier work
# Protocol: (§4) Voltage protocols: For measurement of Kv1.1 to 1.3 currents, voltage steps to +50 mV were applied from a holding potential of −120 mV and the peak current was measured every 15 s. For Kv1.3 currents, 15-ms-long depolarizing pulses were applied. For Kv1.1, 50-ms-long–activating stimuli were used. Kv1.2 currents were evoked by 200-ms-long pulses. […] The remaining current fraction at a given molar concentration was calculated ...
# [3] = system: human Kv1.3 channel (hKv1.3); conditions: read-out: IC50 on Kv1.3; positive control applied at a concentration equivalent to its IC50; no reference given; cited from earlier work
# Protocol: as §4
# [4] = system: human Kv1.3 channel (hKv1.3); test: Whole-cell patch-clamp of phage-displayed toxins, hKv1.3 in human lymphocytes; assay type: cell-based; conditions: perfusion concentration; phage-displayed toxin; experimentally titrated; N = 3
# Protocol: as §1, §2
# Solutions: all salts and components of the solutions were purchased from Sigma Aldrich. The extracellular (bath) solution (ECS) contained 145 mM NaCl, 5 mM KCl, 2.5 mM CaCl2, 1 mM MgCl2, 10 mM Hepes, and 5.5 mM glucose (pH 7.35 with NaOH), while the intracellular (pipette) solution (ICS) contained 140 mM KF, 2 mM MgCl2, 1 mM CaCl2, 11 mM EGTA, and 10 mM Hepes (pH 7.22 with KOH). The osmolarity of the ECS and ICS were 302 mOsM.
# Native peptides, phage-expressed peptides, and positive controls used for them were dissolved in ECS supplemented with 0.1 mg/ml bovine serum albumin (BSA; Sigma-Aldrich Hungary). Bath perfusion around the measured cell with different extracellular solutions was achieved using a gravity flow micro perfusion system using a rate of 0.5 ml/min. Excess fluid was removed continuously.
# as §3, with “s. For Kv1.3 currents, 15-ms-long depolarizing pulses were applied. For Kv1.1, 50-ms-long–activating stimuli were used. Kv1.2 currents were evoked by 200-ms-long pulses.” for “s.”
# Phage display test solutions were prepared according to routine phage display protocols ([62]). Phosphorylated and annealed oligonucleotides encoding the peptide construct were ligated into linearized pAS62 phagemid vector (https://patents.google.com/patent/WO2022144560A1/en) at a vector/insert ratio of 1:3. The final phagemid construct harbored a signal sequence followed by the peptide of interest, a linker sequence ([…]), and the C-terminal part of the P3 coat protein (amino acids: 216-424 of NP_510891.1). Chemically competent XL1-Blue E. coli cells (2022249, Agilent) were transformed with the ligation product and then streaked onto ampicillin (100 μg/ml) containing LB/Amp plates and incubated for 16 h at 37 °C.
# [5] = biological target: T1, KcsA-Kv1.3 T-only chimera (Streptomyces lividans, UniProt P0A334, A54D/A57S/G53D/G56T/I60S/L59F/Q58G/R52A/R64D/T61S/Y62I); test: Phage ELISA-binding assay, KcsA-Kv1.3 T-only; design: species or system human Kv1.3 turret in Streptomyces lividans KcsA; conditions: toxin displayed on M13 phage
# T1 construct: made in house; host or cells: E. coli XL1-Blue (pQE30)
# T1 sequence (P0A334 1-160 R52A/G53D/A54D/G56T/A57S/Q58G/L59F/I60S/T61S/Y62I/R64D): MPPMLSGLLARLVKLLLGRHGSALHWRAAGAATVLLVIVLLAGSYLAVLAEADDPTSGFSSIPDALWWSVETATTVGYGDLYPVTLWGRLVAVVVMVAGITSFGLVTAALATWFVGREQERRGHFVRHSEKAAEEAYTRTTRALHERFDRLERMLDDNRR
# Protocol: Phage display test solutions were prepared according to routine phage display protocols ([62]). Phosphorylated and annealed oligonucleotides encoding the peptide construct were ligated into linearized pAS62 phagemid vector (https://patents.google.com/patent/WO2022144560A1/en) at a vector/insert ratio of 1:3. The final phagemid construct harbored a signal sequence followed by the peptide of interest, a linker sequence ([…]), and the C-terminal part of the P3 coat protein (amino acids: 216-424 of NP_510891.1). […] The particle concentrations of phage solutions were determined using a NanoDrop One C (Thermo Fisher Scientific) spectrophotometer. The phage particle concentration was assessed according to the formula: (A268–A320) × 5 × 10^12 particles/ml ([62]). […]
# Phage stock solutions were diluted to working concentration with phage resuspension buffer supplemented with 2 mM DDM. […] Following blocking, the wells were washed 4× with washing buffer (300 μl TBS-Tween, 0.1% v/v) using a Wellwash Versa microplate washer (Thermo Fisher Scientific); then 50 μl phage solution (in TBS-BSA-Tween, 0.1% v/v, 2 mM DDM) at determined phage concentration was added to the wells and incubated for 1 h at room temperature on a horizontal shaker. […]
# [6] = system: T+F chimera variant mutated at T84; test: Phage binding to T84-mutated T+F chimera, pilot experiment; conditions: pilot experiment (not shown)
# Protocol: Phage stock solutions were diluted to working concentration with phage resuspension buffer supplemented with 2 mM DDM. For protein immobilization, the following amounts were used in a final volume of 50 μl/well: wt KcsA, 0.1 μg; KcsA-Kv1.1 T-only, 0.005 μg; KcsA-Kv1.1 T+F, 0.02 μg; KcsA-Kv1.2 T-only, 0.01 μg; KcsA-Kv1.2 T+F, 0.1 μg; KcsA-Kv1.3 T-only, 0.01 μg; and KcsA-Kv1.3 T+F, 0.1 μg. Protein samples were diluted in 50 μl of storage buffer (20 mM Tris pH8.0, 300 mM KCl, 2 mM DDM) and were added to the designated wells of a Pierce Clear, 96-Well Nickel Coated Plate (15442, Thermo Fisher Scientific), then incubated for 1 h at room temperature on a horizontal shaker at 130 rpm. The plate was blocked for 1 h at room temperature with 180 μl/well TBS-BSA supplemented with 1 mM DDM. Following blocking, the wells were washed 4× with washing buffer (300 μl TBS-Tween, 0.1% v/v) using a Wellwash Versa microplate washer (Thermo Fisher Scientific); then 50 μl phage solution (in TBS-BSA-Tween, 0.1% v/v, 2 mM DDM) at determined phage concentration was added to the wells and incubated for 1 h at room temperature on a horizontal shaker. […] The light absorbance signal was read at 450 nm with Byonoy absorbance 96 plate reader (Byonoy GmbH).
# [7] = system: human Kv1.2 channel (hKv1.2); conditions: positive control applied at a concentration equivalent to its IC50; no reference given; cited from earlier work
# Protocol: as §4
compound,measurement,setting,value
"CC[N+](CC)(CC)CC [TEA+, tetraethylammonium]",inhibition of Kv1.3 current,[1],approximately 50%
same,IC50,[2],300 µM
same,IC50,[3],10000 µM
HgTX1-phage: HgTx1 fused to the P3 coat protein of M13 phage with an eight amino acid linker (TVIDVKCTSPKQCLPPCKAQFGIRAGAKCMNGKCKCYPH-{GSASSATR-M13 P3 coat protein (216-424)}; not fully specified; ends and bridges not checked),phage concentration giving approximate 50% block of hKv1.3 current,[4],~1.8 x 10^12 particle/ml
same,"phage binding to KcsA-Kv1.3 T-only, in words",[5],weaker binding
MTX-expressing phages: MTX displayed on M13 phage (VSCTGSKDCYAPCRKQTGCPNAKCINKSCKCYGC-{GSASSATR-M13 P3 coat protein (216-424)}; not fully specified; ends and bridges not checked),"binding to T+F chimera variant mutated at T84, in words",[6],did not diminish when T84 was mutated
charybdotoxin,IC50,[7],0.014 µM
